Measured values taken from patent publication US20250360114A1, “INTRAVENOUS RIFABUTIN FORMULATION AND METHODS OF MAKING” (BIOVERSYS AG, priority 2024, published 2025).

Assays:
[1] = Solubility of rifabutin in alkanes; type: physicochemical
[2] = Sub-visible particle test (10 mg/mL in 0.9% saline, particle counter); type: physicochemical
Experimental: As these particle forming impurities are not described in the current pharmacopeial analytical methods, a new testing method was developed which is described in the methods below. In brief, rifabutin powder is dissolved in a mixture of dimethyl isosorbide, acetic acid and water. Subsequently, the obtained solution is diluted in 0.9% saline to a final concentration of 10 mg/mL and sub-visible particles are determined. The established limits for this test are: (1) not more than 12.5 particles/mL greater than 10 μm in diameter, and (2) not more than 3 particles/mL greater than 25 μm in diameter. Considering that current concentrations used for the intravenous administration of rifabutin are well below 10 mg/mL, these limits are much more stringent than the current pharmacopeial limits.
About 400 mg of rifabutin is dissolved in 2 mL of a mixture of isosorbide dimethyl ether (DMI) and acetic acid in water (40% DMI, 2.4% acetic acid). The obtained solution is filtered through a 0.2 μm Nylon filter and […] of 0.9% saline solution to a final concentration of 10 mg/mL. Solutions are stirred for 15 min on a roller mixer to allow sub-visible particle formation.
Sub-visible particles are determined using a suitable instrument (e.g. PAMAS SVSS particle counter). Particle numbers in the 10 mg/mL solution should be not more than 12.5 particles/mL greater 10 μm and not more than […] greater 25 μm to pass the test.

[3] = Method 1, Example 1 (pentane Soxhlet extraction)
[4] = Method 2, Example 2 (pentane / silica gel columns, acetone elution)
[5] = Method 3, Example 3 (dissolved in n-heptane 50° C., filtered)

SMILES | Solubility [1] | Sub-visible particles ≥10 μm [2, 3] [particles/mL] | Sub-visible particles ≥25 μm [2, 3] [particles/mL] | Sub-visible particles ≥10 μm [2, 4] [particles/mL] | Sub-visible particles ≥25 μm [2, 4] [particles/mL] | Sub-visible particles ≥10 μm [2, 5] [particles/mL] | Sub-visible particles ≥25 μm [2, 5] [particles/mL]
CO[C@H]1/C=C/O[C@@]2(C)Oc3c(C)c(O)c4c(c3C2=O)C2=NC3(CCN(CC(C)C)CC3)NC2=C(NC(=O)/C(C)=C\C=C\[C@H](C)[C@H](O)[C@@H](C)[C@@H](O)[C@@H](C)[C@H](OC(C)=O)[C@@H]1C)C4=O [Rifabutin] | low solubility | – | – | – | – | – | –
CO[C@H]1/C=C/O[C@@]2(C)Oc3c(C)c(O)c4c(c3C2=O)C2=NC3(CCN(CC(C)C)CC3)NC2=C(NC(=O)/C(C)=C\C=C\[C@H](C)[C@H](O)[C@@H](C)[C@@H](O)[C@@H](C)[C@H](OC(C)=O)[C@@H]1C)C4=O [original, rifabutin] | – | 138.3 | 16.3 | 1804.0 | 98.7 | 1804.0 | 98.7
CO[C@H]1/C=C/O[C@@]2(C)Oc3c(C)c(O)c4c(c3C2=O)C2=NC3(CCN(CC(C)C)CC3)NC2=C(NC(=O)/C(C)=C\C=C\[C@H](C)[C@H](O)[C@@H](C)[C@@H](O)[C@@H](C)[C@H](OC(C)=O)[C@@H]1C)C4=O [purified, rifabutin] | – | 8.4 | 0.4 | 2.6 | 0.0 | 7.1 | 0.2
